Converted amounts (≈) assume the structure as drawn. Like-named read-outs stand apart in the source and are kept apart here.
Assays:
Test in all cases: Antibacterial activity test (agar dilution MIC)
Assay type in all cases: cell-based
[1] = test system: Moraxella catarrhalis W-0506; conditions: read-out: Minimum inhibitory concentration (MIC)
Method: (§1) In vitro antibacterial activities of the compounds of Examples 13, 28, 35, 43, 53 to 55, 64, 70, 84, 90, 94, 95, 108, 128, and 129 were measured as follows by referring to the standard method of the Japanese Society of Chemotherapy (Chemotherapy, Vol. 29, pp. 76-79, 1981). The antibacterial activity of midecamycin (MDM) was similarly measured for comparison.
(§2) Using each solution of the test substance prepared in methanol at a concentration of […], 2-fold serial dilutions were prepared by using methanol. Each of the prepared solutions of the test substances was put into a petri dish in a volume of 200 μl, added with 10 ml of agar medium for sensitivity measurement added with 5% horse sterile defibrinated blood, 15 μg/ml of β-nicotinamide-adenine dinucleotide, and 2.5 μg/ml of Hemin, and mixed for dilution to prepare an agar plate containing a test substance. A predetermined volume of a liquid medium for sensitivity measurement, prepared so as to contain a given number of test bactera, was inoculated on the agar plate containing a test substance by using a micro planter (Sakuma Seisakusho), and after the inoculation, the bacteria were cultured at 37° C. for about 20 hours. After the culture, presence or absence of growth of the test bacteria on the plate was observed by visual inspection, and the minimum concentration at which growth was not observed was determined as the minimum inhibitory concentration (MIC) of the test sustance.

[2] = test system: Streptococcus pneumoniae IP692; conditions: read-out: Minimum inhibitory concentration (MIC)
Method: as §1, §2

[3] = test system: Streptococcus pneumoniae DP1 TypeI; conditions: DP1TYPEI, read-out: Minimum inhibitory concentration (MIC)
Method: as §1, §2

[4] = test system: Streptococcus pneumoniae TH-662; conditions: read-out: Minimum inhibitory concentration (MIC)
Method: as §1, §2

[5] = test system: Staphylococcus aureus 209P JC-1; conditions: read-out: Minimum inhibitory concentration (MIC)
Method: as §1, §2

[6] = test system: Streptococcus pyogenes Cook; conditions: read-out: Minimum inhibitory concentration (MIC)
Method: as §1, §2

[7] = test system: Haemophilus influenzae 9334; conditions: read-out: Minimum inhibitory concentration (MIC)
Method: as §1, §2

[8] = W0506, test bacterium F = Moraxella catarrhalis W-0506, blood agar medium, 37° C., about 20 hours
[9] = test bacterium C = Streptococcus pneumoniae IP692, blood agar medium, 37° C., about 20 hours
[10] = test bacterium B = Streptococcus pneumoniae DP1 TypeI, blood agar medium, 37° C., about 20 hours
[11] = TH662, test bacterium D = Streptococcus pneumoniae TH-662, blood agar medium, 37° C., about 20 hours
[12] = test bacterium A = Staphylococcus aureus 209P JC-1, blood agar medium, 37° C., about 20 hours
[13] = test bacterium E = Streptococcus pyogenes Cook, blood agar medium, 37° C., about 20 hours
[14] = test bacterium G = Haemophilus influenzae 9334, blood agar medium, 37° C., about 20 hours

MIC [1, 8] [µg/mL] | MIC [2, 9] [µg/mL] | MIC [3, 10] [µg/mL] | MIC [4, 11] [µg/mL] | MIC [5, 12] [µg/mL] | MIC [6, 13] [µg/mL] | MIC [7, 14] [µg/mL] | SMILES | MIC ([1]; Moraxella catarrhalis, W0506, 20 h) [µg/mL] | MIC ([2]; Streptococcus pneumoniae, IP692, 20 h) [µg/mL] | MIC ([3]; Streptococcus pneumoniae, 20 h) [µg/mL] | MIC ([4]; Streptococcus pneumoniae, TH662, 20 h) [µg/mL] | MIC ([7]; Haemophilus influenzae, 9334, 20 h) [µg/mL] | MIC ([5]; Staphylococcus aureus, 209P, 20 h) [µg/mL] | MIC ([6]; Streptococcus pyogenes, 20 h) [µg/mL]
1 (≈ 1.01 µM) | 0.03 (≈ 0.0304 µM) | 0.015 (≈ 0.0152 µM) | 8 (≈ 8.11 µM) | 0.13 (≈ 0.132 µM) | 0.03 (≈ 0.0304 µM) | – | CCC(=O)O[C@@H]1CC(=O)OCCC(/C=C/Cc2ccnc3ccccc23)CN(C)C[C@H](O)[C@H](C)C[C@H](CC=O)[C@H](O[C@@H]2OC(C)[C@@H](O[C@H]3CC(C)(O)[C@@H](OC(=O)CC)C(C)O3)C(N(C)C)C2O)[C@H]1OC (single isomer, unassigned) [Example 54] | – | – | – | – | – | – | –
0.25 (≈ 0.259 µM) | 0.25 (≈ 0.259 µM) | 0.13 (≈ 0.135 µM) | 16 (≈ 16.6 µM) | 0.25 (≈ 0.259 µM) | 0.25 (≈ 0.259 µM) | 0.5 (≈ 0.519 µM) | CCC(=O)OC1C(C)O[C@@H](O[C@@H]2C(C)O[C@@H](O[C@H]3[C@@H](CC=O)C[C@@H](C)[C@@H](O)CN(CCCCc4ccccc4)CCCNC(=O)C[C@@H](OC(=O)CC)[C@@H]3OC)C(O)C2N(C)C)CC1(C)OC(C)=O (some centres unmarked) [Example 13] | – | – | – | – | – | – | –
2 (≈ 2.06 µM) | 0.13 (≈ 0.134 µM) | 0.03 (≈ 0.0309 µM) | 8 (≈ 8.24 µM) | 0.5 (≈ 0.515 µM) | 0.25 (≈ 0.257 µM) | 1 (≈ 1.03 µM) | CCC(=O)OC1C(C)O[C@@H](O[C@@H]2C(C)O[C@@H](O[C@H]3[C@@H](CC=O)C[C@@H](C)[C@@H](O)CN(C)CCC(/C=C/Cc4ccnc5ccccc45)NC(=O)C[C@@H](OC(=O)CC)[C@@H]3OC)C(O)C2N(C)C)CC1(C)O (some centres unmarked) [Example 28] | – | – | – | – | – | – | –
4 (≈ 4.11 µM) | 0.06 (≈ 0.0617 µM) | 0.03 (≈ 0.0308 µM) | 8 (≈ 8.22 µM) | 1 (≈ 1.03 µM) | 0.25 (≈ 0.257 µM) | 2 (≈ 2.06 µM) | CCC(=O)OC1C(C)O[C@@H](O[C@@H]2C(C)O[C@@H](O[C@H]3[C@@H](CC=O)C[C@@H](C)[C@@H](O)CN(C)CCC(CCCc4cnc5ccccc5c4)NC(=O)C[C@@H](OC(=O)CC)[C@@H]3OC)C(O)C2N(C)C)CC1(C)O (some centres unmarked) [Example 35] | – | – | – | – | – | – | –
0.5 (≈ 0.503 µM) | 0.06 (≈ 0.0604 µM) | 0.06 (≈ 0.0604 µM) | 1 (≈ 1.01 µM) | 0.25 (≈ 0.252 µM) | 0.13 (≈ 0.131 µM) | 0.5 (≈ 0.503 µM) | CCC(=O)O[C@@H]1CC(=O)O[C@H](C)CCCN(CCCCc2ccccc2)C[C@H](O)[C@H](C)C[C@H](CC=O)[C@H](O[C@@H]2OC(C)[C@@H](O[C@H]3CC(C)(OC(C)=O)[C@@H](OC(=O)CC)C(C)O3)C(N(C)C)C2O)[C@H]1OC (some centres unmarked) [Example 43] | – | – | – | – | – | – | –
1 (≈ 1.01 µM) | 0.03 (≈ 0.0304 µM) | 0.015 (≈ 0.0152 µM) | 8 (≈ 8.11 µM) | 0.5 (≈ 0.507 µM) | 0.06 (≈ 0.0608 µM) | 2 (≈ 2.03 µM) | CCC(=O)O[C@@H]1CC(=O)O[C@@H](C/C=C/c2cnc3ccccc3c2)CCCN(C)C[C@H](O)[C@H](C)C[C@H](CC=O)[C@H](O[C@@H]2OC(C)[C@@H](O[C@H]3CC(C)(O)[C@@H](OC(=O)CC)C(C)O3)C(N(C)C)C2O)[C@H]1OC (some centres unmarked) [Example 53] | – | – | – | – | – | – | –
0.25 (≈ 0.318 µM) | 0.03 (≈ 0.0382 µM) | 0.03 (≈ 0.0382 µM) | > 128 | 0.5 (≈ 0.636 µM) | 0.06 (≈ 0.0763 µM) | – | CCC(=O)O[C@@H]1CC(=O)OCCC(/C=C/Cc2ccnc3ccccc23)CN(C)C[C@H](O)[C@H](C)C[C@H](CC=O)[C@H](O[C@@H]2OC(C)[C@@H](O)C(N(C)C)C2O)[C@H]1OC (some centres unmarked) [Example 55] | – | – | – | – | – | – | –
0.25 (≈ 0.256 µM) | 0.25 (≈ 0.256 µM) | 0.13 (≈ 0.133 µM) | 8 (≈ 8.18 µM) | 0.25 (≈ 0.256 µM) | 0.06 (≈ 0.0613 µM) | 1 (≈ 1.02 µM) | CCC(=O)O[C@@H]1CC(=O)NCCCCN(CCCCc2ccccc2)C[C@H](O)[C@H](C)C[C@H](CC=O)[C@H](O[C@@H]2OC(C)[C@@H](O[C@H]3CC(C)(OC(C)=O)[C@@H](OC(=O)CC)C(C)O3)C(N(C)C)C2O)[C@H]1OC (some centres unmarked) [Example 64] | – | – | – | – | – | – | –
2 (≈ 2.03 µM) | 0.06 (≈ 0.0609 µM) | 0.06 (≈ 0.0609 µM) | 8 (≈ 8.12 µM) | 0.5 (≈ 0.507 µM) | 0.25 (≈ 0.254 µM) | 8 (≈ 8.12 µM) | CCC(=O)O[C@@H]1CC(=O)O[C@@H](C/C=C/c2ccc3ccccc3c2)CCCN(C)C[C@H](O)[C@H](C)C[C@H](CC=O)[C@H](O[C@@H]2OC(C)[C@@H](O[C@H]3CC(C)(O)[C@@H](OC(=O)CC)C(C)O3)C(N(C)C)C2O)[C@H]1OC (some centres unmarked) [Example 84] | – | – | – | – | – | – | –
1 (≈ 0.973 µM) | 0.03 (≈ 0.0292 µM) | 0.015 (≈ 0.0146 µM) | 0.25 (≈ 0.243 µM) | 0.25 (≈ 0.243 µM) | 0.03 (≈ 0.0292 µM) | 4 (≈ 3.89 µM) | CCC(=O)O[C@@H]1CC(=O)O[C@@H](C/C=C/c2cnc3ccccc3c2)CCCN(C)C[C@H](O)[C@H](C)C[C@H](CC=O)[C@H](O[C@@H]2OC(C)[C@@H](O[C@H]3CC(C)(OC(C)=O)[C@@H](OC(=O)CC)C(C)O3)C(N(C)C)C2O)[C@H]1OC (some centres unmarked) [Example 90] | – | – | – | – | – | – | –
1 (≈ 0.972 µM) | 0.03 (≈ 0.0291 µM) | 0.015 (≈ 0.0146 µM) | 0.5 (≈ 0.486 µM) | 0.5 (≈ 0.486 µM) | 0.06 (≈ 0.0583 µM) | 4 (≈ 3.89 µM) | CCC(=O)O[C@@H]1CC(=O)O[C@@H](C/C=C/c2cnc3ncccc3c2)CCCN(C)C[C@H](O)[C@H](C)C[C@H](CC=O)[C@H](O[C@@H]2OC(C)[C@@H](O[C@H]3CC(C)(OC(C)=O)[C@@H](OC(=O)CC)C(C)O3)C(N(C)C)C2O)[C@H]1OC (some centres unmarked) [Example 94] | – | – | – | – | – | – | –
4 (≈ 3.89 µM) | 0.13 (≈ 0.127 µM) | 0.06 (≈ 0.0584 µM) | 1 (≈ 0.973 µM) | 1 (≈ 0.973 µM) | 0.25 (≈ 0.243 µM) | 32 (≈ 31.2 µM) | CCC(=O)O[C@@H]1CC(=O)O[C@@H](C/C=C/c2ccc3ccccc3c2)CCCN(C)C[C@H](O)[C@H](C)C[C@H](CC=O)[C@H](O[C@@H]2OC(C)[C@@H](O[C@H]3CC(C)(OC(C)=O)[C@@H](OC(=O)CC)C(C)O3)C(N(C)C)C2O)[C@H]1OC (some centres unmarked) [Example 95] | – | – | – | – | – | – | –
2 (≈ 1.9 µM) | 0.06 (≈ 0.0569 µM) | 0.03 (≈ 0.0285 µM) | 0.5 (≈ 0.474 µM) | 0.5 (≈ 0.474 µM) | 0.13 (≈ 0.123 µM) | 8 (≈ 7.59 µM) | CCC(=O)O[C@@H]1CC(=O)O[C@@H](C/C=C/c2cccc(-c3cccnc3)c2)CCCN(C)C[C@H](O)[C@H](C)C[C@H](CC=O)[C@H](O[C@@H]2OC(C)[C@@H](O[C@H]3CC(C)(OC(C)=O)[C@@H](OC(=O)CC)C(C)O3)C(N(C)C)C2O)[C@H]1OC (some centres unmarked) [Example 108] | – | – | – | – | – | – | –
1 (≈ 1 µM) | 0.03 (≈ 0.03 µM) | 0.03 (≈ 0.03 µM) | 0.13 (≈ 0.13 µM) | 0.5 (≈ 0.5 µM) | 0.06 (≈ 0.06 µM) | 16 (≈ 16 µM) | CCCC(=O)O[C@H]1C(C)O[C@@H](O[C@@H]2C(C)O[C@@H](O[C@H]3[C@@H](CC=O)C[C@@H](C)[C@@H](O)CN(C)CCC[C@H](C/C=C/c4cnc5ccccc5c4)OC(=O)C[C@@H](O)[C@@H]3OC)C(O)C2N(C)C)CC1(C)OC(=O)CC (some centres unmarked) [Example 128] | – | – | – | – | – | – | –
1 (≈ 1 µM) | 0.03 (≈ 0.03 µM) | 0.015 (≈ 0.015 µM) | 0.13 (≈ 0.13 µM) | 0.5 (≈ 0.5 µM) | 0.06 (≈ 0.06 µM) | 8 (≈ 8 µM) | CCCC(=O)O[C@H]1C(C)O[C@@H](O[C@@H]2C(C)O[C@@H](O[C@H]3[C@@H](CC=O)C[C@@H](C)[C@@H](O)CN(C)CCC[C@H](C/C=C/c4cncc5ccccc45)OC(=O)C[C@@H](O)[C@@H]3OC)C(O)C2N(C)C)CC1(C)OC(=O)CC (some centres unmarked) [Example 129] | – | – | – | – | – | – | –
– | – | – | – | – | – | – | CCC(=O)O[C@@H]1CC(=O)O[C@H](C)C/C=C/C=C/[C@H](O)[C@H](C)C[C@H](CC=O)[C@H](O[C@@H]2O[C@H](C)[C@@H](O[C@H]3C[C@@](C)(O)[C@@H](OC(=O)CC)[C@H](C)O3)[C@H](N(C)C)[C@H]2O)[C@H]1OC [MDM, midecamycin, reference compound] | 2 (≈ 2.46 µM) | 0.5 (≈ 0.614 µM) | 0.25 (≈ 0.307 µM) | > 128 | 2 (≈ 2.46 µM) | 0.5 (≈ 0.614 µM) | 0.25 (≈ 0.307 µM)
